# In BindingDB's records for doi:10.1111/j.1747-0285.2011.01215.x (Yeditepe University, 2011):
# Target: Sigma non-opioid intracellular receptor 1 (Cavia porcellus, UniProt Q60492)
# Experiment: Sigma 1 Assay
# Conditions: pH 7.4; 37 °C
# Experimental: The test was performed with the radioligand [3H]-(+)-pentazocine (42.5 Ci/mmol) from Perkin Elmer.
# Sigma non-opioid intracellular receptor 1, sequence (Q60492 whole entry): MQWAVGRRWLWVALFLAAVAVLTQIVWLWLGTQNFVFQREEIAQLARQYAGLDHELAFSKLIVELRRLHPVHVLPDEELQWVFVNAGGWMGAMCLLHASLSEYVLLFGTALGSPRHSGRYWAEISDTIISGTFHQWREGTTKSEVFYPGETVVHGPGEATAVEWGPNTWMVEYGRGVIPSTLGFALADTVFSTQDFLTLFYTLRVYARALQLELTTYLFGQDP
row,SMILES,Ki [nM]
1,"Fc1ccc(N2CCN(Cc3cn(CN4CCN(c5ccc(F)cc5)CC4)c4ccccc34)CC2)cc1 [1,3-di-{[4-(4-fluorophenyl)piperazin1-yl]methyl}-1 H-indole, 2a]",2690
2,"Fc1ccc(N2CCN(CCCn3ccc4ccccc43)CC2)cc1 [1-{3-[4-(substitutedphenyl)piperazin1-yl]propyl}-1 H-indole, 4a]",456
3,"Fc1ccccc1N1CCN(CCCn2ccc3ccccc32)CC1 [1-{3-[4-(substitutedphenyl)piperazin1-yl]propyl}-1 H-indole, 4b]",264
4,"Cc1cn(CN2CCN(c3ccc(F)cc3)CC2)c2ccccc12 [1-{[4-(substitutedphenyl/phenylethyl)piperazin1-yl]methyl}-3-methyl-1 H-indole, 3a]",1000
5,"Clc1ccc(CN2CCN(Cc3c[nH]c4ccccc34)CC2)cc1Cl [3-{[4-(substitutedphenyl/benzyl)piperazin1-yl]methyl}-1 H-indole, 1c]",126

# More lines, in order of falling Ki, values ahead:
row,Ki [nM],SMILES
1,3640,Fc1ccc(N2CCN(Cc3c[nH]c4ccccc34)CC2)cc1 [3-[[4-(4-fluorophenyl)piperazin-1-yl]methyl]-1H-indole]
2,1490,"c1ccc(N2CCN(CCCn3ccc4ccccc43)CC2)cc1 [1-{3-[4-(substitutedphenyl)piperazin1-yl]propyl}-1 H-indole, 4c]"
3,216,"Fc1ccc(F)c(CN2CCN(Cc3c[nH]c4ccccc34)CC2)c1 [3-{[4-(substitutedphenyl/benzyl)piperazin1-yl]methyl}-1 H-indole, 1b]"
4,14.2,"Cc1cn(CN2CCN(CCc3ccccc3)CC2)c2ccccc12 [1-{[4-(substitutedphenyl/phenylethyl)piperazin1-yl]methyl}-3-methyl-1 H-indole, 3b]"
